Numbers after ± are expanded uncertainties.
Columns and labels:
[1] = DSC
[2] = Molar enthalpy of transition or fusion; conditions: DSC

Triple point temperature ([1]; Crystal 1): 313.65 ± 1 K | Triple point temperature ([1]; Crystal 2): 305.05 ± 1 K | Molar enthalpy of transition or fusion ([2]; Crystal 1): 9.93 ± 1 kcal/mol | Molar enthalpy of transition or fusion ([2]; Crystal 2): 3.42 ± 0.359 kcal/mol
SMILES: CCCCCCCCCCCCCCCCCCCCC [heneicosane]
